Experimental data from ChEMBL document CHEMBL6153028, “Understanding the synergistic sensitization of natural products and antibiotics: An effective strategy to combat MRSA” (2025).

Experiments:
Type in all cases: functional
Staphylococcus aureus [1] = assay: Synergistic antimicrobial activity against methicillin-resistant Staphylococcus aureus assessed as fractional inhibitory concentration index in presence of amoxicillin incubated for 24 hrs by checkerboard assay
Staphylococcus aureus [2] = assay: Synergistic antimicrobial activity against methicillin-resistant Staphylococcus aureus assessed as fractional inhibitory concentration index in presence of Ceftriaxone incubated for 24 hrs by checkerboard assay
Staphylococcus aureus [3] = assay: Synergistic antimicrobial activity against methicillin-resistant Staphylococcus aureus assessed as fractional inhibitory concentration index in presence of penicillin G incubated for 24 hrs by checkerboard assay
Staphylococcus aureus [4] = assay: Synergistic antimicrobial activity against methicillin-resistant Staphylococcus aureus assessed as fractional inhibitory concentration index in presence of ampicillin incubated for 24 hrs by checkerboard assay
Staphylococcus aureus [5] = assay: Synergistic antimicrobial activity against methicillin-resistant Staphylococcus aureus assessed as fractional inhibitory concentration index in presence of cefixime incubated for 24 hrs by checkerboard assay
Staphylococcus aureus [6] = assay: Synergistic antibacterial activity against methicillin resistant Staphylococcus aureus assessed as fractional inhibitory concentration index in presence of ciprofloxacin
Staphylococcus aureus [7] = assay: Synergistic antibacterial activity against methicillin resistant Staphylococcus aureus assessed as fractional inhibitory concentration index in presence of norfloxacin; settings: time 24 hrs
Staphylococcus aureus [8] = assay: Synergistic antibacterial activity against methicillin resistant Staphylococcus aureus assessed as fractional inhibitory concentration index in presence of gentamicin
Staphylococcus aureus [9] = assay: Synergistic antibacterial activity against methicillin resistant Staphylococcus aureus assessed as fractional inhibitory concentration index in presence of oxacillin incubated for 24 hrs by checkerboard assay
Staphylococcus aureus [10] = assay: Synergistic antimicrobial activity against methicillin-resistant Staphylococcus aureus assessed as fractional inhibitory concentration index in presence of gentamicin by checkerboard assay
Staphylococcus aureus [11] = assay: Synergistic antimicrobial activity against methicillin-resistant Staphylococcus aureus assessed as fractional inhibitory concentration index in presence of minocycline by checkerboard assay
Staphylococcus aureus [12] = assay: Synergistic antimicrobial activity against methicillin-resistant Staphylococcus aureus assessed as fractional inhibitory concentration index in presence of chloramphenicol by checkerboard assay
Staphylococcus aureus [13] = assay: Synergistic antimicrobial activity against methicillin-resistant Staphylococcus aureus assessed as fractional inhibitory concentration index in presence of fosfomycin by checkerboard assay
Staphylococcus aureus [14] = assay: Synergistic antibacterial activity against methicillin resistant Staphylococcus aureus assessed as fractional inhibitory concentration index in presence of erythromycin incubated for 24 hrs by checkerboard assay
Staphylococcus aureus [15] = assay: Synergistic antibacterial activity against methicillin resistant Staphylococcus aureus clinical isolate 003 assessed as fractional inhibitory concentration in presence of norfloxacin
Staphylococcus aureus [16] = assay: Antibacterial activity against methicillin-resistant Staphylococcus aureus assessed as reduction in microbial growth by CLSI based broth microdilution method
Staphylococcus aureus [17] = assay: Synergistic antimicrobial activity against methicillin resistant Staphylococcus aureus assessed as fractional inhibitory concentration index incubated for 24 hrs in presence of Oxacillin by checkerboard assay
Staphylococcus aureus [18] = assay: Synergistic antimicrobial activity against methicillin resistant Staphylococcus aureus assessed as fractional inhibitory concentration index incubated for 24 hrs in presence of linezolid by checkerboard assay
Staphylococcus aureus [19] = assay: Synergistic antimicrobial activity against methicillin resistant Staphylococcus aureus assessed as fractional inhibitory concentration index incubated for 24 hrs in presence of daptomycin by checkerboard assay
Staphylococcus aureus [20] = assay: Synergistic antimicrobial activity against methicillin resistant Staphylococcus aureus assessed as fractional inhibitory concentration index incubated for 24 hrs in presence of oxytetracycline by checkerboard assay
Staphylococcus aureus [21] = assay: Synergistic antibacterial activity against methicillin resistant Staphylococcus aureus assessed as fractional inhibitory concentration index in presence of ceftazidime
Staphylococcus aureus [22] = assay: Synergistic antibacterial activity against methicillin resistant Staphylococcus aureus assessed as fractional inhibitory concentration index in presence of levofloxacin
Staphylococcus aureus [23] = assay: Synergistic antimicrobial activity against methicillin-resistant Staphylococcus aureus CCARM 3089 assessed as fractional inhibitory concentration index in presence of Chloramphenicol incubated for 24 hrs by checkerboard assay
Staphylococcus aureus [24] = assay: Synergistic antimicrobial activity against methicillin-resistant Staphylococcus aureus CCARM 3089 assessed as fractional inhibitory concentration index in presence of oxacillin incubated for 24 hrs by checkerboard assay
Staphylococcus aureus [25] = assay: Synergistic antimicrobial activity against methicillin resistant Staphylococcus aureus assessed as fractional inhibitory concentration index incubated for 24 hrs in presence of Norfloxacin by checkerboard assay
Staphylococcus aureus [26] = assay: Synergistic antimicrobial activity against methicillin resistant Staphylococcus aureus assessed as fractional inhibitory concentration index incubated for 24 hrs in presence of rifampicin by checkerboard assay
Staphylococcus aureus [27] = assay: Synergistic antimicrobial activity against methicillin-resistant Staphylococcus aureus assessed as fractional inhibitory concentration index incubated for 24 hrs in presence of ampicillin by checkerboard assay
Staphylococcus aureus [28] = assay: Synergistic antibacterial activity against methicillin resistant Staphylococcus aureus assessed as fractional inhibitory concentration index in presence of ampicillin
Staphylococcus aureus [29] = assay: Synergistic antibacterial activity against methicillin resistant Staphylococcus aureus assessed as fractional inhibitory concentration index in presence of ceftriaxone
Staphylococcus aureus [30] = assay: Synergistic antimicrobial activity against methicillin-resistant Staphylococcus aureus assessed as fractional inhibitory concentration index in presence of teicoplanin by checkerboard assay
Staphylococcus aureus [31] = assay: Synergistic antibacterial activity against methicillin resistant Staphylococcus aureus assessed as fractional inhibitory concentration index in presence of tetracycline
Staphylococcus aureus [32] = assay: Synergistic antibacterial activity against […] Staphylococcus aureus ATCC 29213 assessed as fractional inhibitory concentration index incubated for 24 hrs in presence of ciprofloxacin by checkerboard assay
Staphylococcus aureus [33] = assay: Synergistic antibacterial activity against […] Staphylococcus aureus ATCC 29213 assessed as fractional inhibitory concentration index incubated for 24 hrs in presence of amoxicillin by checkerboard assay
Staphylococcus aureus [34] = assay: Synergistic antibacterial activity against […] Staphylococcus aureus ATCC 29213 assessed as fractional inhibitory concentration index incubated for 24 hrs in presence of pencillin by checkerboard assay

For `O=c1cc(-c2ccccc2)c2cc(O)c(O)cc2o1`, the “fractional inhibitory concentration index (FICI)” value (Staphylococcus aureus [1]) was <0.5, the “fractional inhibitory concentration index (FICI)” value (Staphylococcus aureus [2]) was <0.5 and the “fractional inhibitory concentration index (FICI)” value (Staphylococcus aureus [3]) was <0.5. The “fractional inhibitory concentration index (FICI)” value (Staphylococcus aureus [4]) was <0.5 and the “fractional inhibitory concentration index (FICI)” value (Staphylococcus aureus [5]) was <0.5.

In the case of `CC(C)=CCc1c(O)cc(O)c2c1O[C@H](c1ccc(O)cc1)CC2=O`, the “fractional inhibitory concentration index (FICI)” value (Staphylococcus aureus [6]) is reported as 0.5, the “fractional inhibitory concentration index (FICI)” value (Staphylococcus aureus [7]) is reported as 0.5 and the “fractional inhibitory concentration index (FICI)” value (Staphylococcus aureus [8]) is reported as 0.25. The “fractional inhibitory concentration index (FICI)” value (Staphylococcus aureus [9]) was 0.31.

In the case of `COc1cc(OC/C=C(\C)CCC=C(C)C)c2ccc(=O)oc2c1`, the “fractional inhibitory concentration index (FICI)” value (Staphylococcus aureus [10]) is reported as <0.5, the “fractional inhibitory concentration index (FICI)” value (Staphylococcus aureus [11]) is reported as <0.5 and the “fractional inhibitory concentration index (FICI)” value (Staphylococcus aureus [12]) is reported as <0.5. For the same compound, the “fractional inhibitory concentration index (FICI)” value (Staphylococcus aureus [13]) was <0.5.

In the case of `CC(C)=CCC/C(C)=C\C=O`, the “fractional inhibitory concentration index (FICI)” value (Staphylococcus aureus [14]) is reported as <0.5 and the “fractional inhibitory concentration index (FICI)” value (Staphylococcus aureus [15]) is reported as <0.5.

`C=CC(C)(C)c1cc(-c2coc3cc(O)cc(O)c3c2=O)c(CC=C(C)C)c(O)c1O` gave an MIC (Staphylococcus aureus [16]) of 12.5 µg/mL.

`CC[C@@H]1CC[C@@]2(C)C(C)=CCC[C@@H]2[C@@]1(C)CCC1=CC(=O)O[C@@H]1O` was tested, and the “fractional inhibitory concentration index (FICI)” value (Staphylococcus aureus [17]) was 0.223, the “fractional inhibitory concentration index (FICI)” value (Staphylococcus aureus [18]) was 0.34 and the “fractional inhibitory concentration index (FICI)” value (Staphylococcus aureus [19]) was 0.32. For the same compound, the “fractional inhibitory concentration index (FICI)” value (Staphylococcus aureus [20]) was 0.321.

`C/C(=C\C(O)=C\O)[C@@H]1Oc2cc(O[C@@H]3O[C@@H](C)[C@H](O)[C@@H](O)[C@H]3O)cc(O)c2C(=O)[C@H]1O` was tested, and the “fractional inhibitory concentration index (FICI)” value (Staphylococcus aureus [21]) was 0.187 and the “fractional inhibitory concentration index (FICI)” value (Staphylococcus aureus [22]) was 0.25.

For `COc1c(C)c(O)c(CC=C(C)C)c(O)c1Cc1c(O)c(C(C)=O)c(O)c(CC=C(C)C)c1OC`, the “fractional inhibitory concentration index (FICI)” value (Staphylococcus aureus [23]) was 0.393 and the “fractional inhibitory concentration index (FICI)” value (Staphylococcus aureus [24]) was 0.008.

For `Oc1ccc([C@H]2Oc3cc(O)cc4c3[C@@H]2c2cc(O)cc3c2[C@H](c2cc(O)cc5c2[C@H]4[C@@H](c2ccc(O)cc2)O5)[C@@H](c2ccc(O)cc2)O3)cc1`, the “fractional inhibitory concentration index (FICI)” value (Staphylococcus aureus [25]) was <0.5, the “fractional inhibitory concentration index (FICI)” value (Staphylococcus aureus [26]) was <0.5 and the “fractional inhibitory concentration index (FICI)” value (Staphylococcus aureus [27]) was <0.5.

In the case of `O=c1cc(-c2ccc(O)cc2)oc2cc(O)cc(O)c12` [APIGENIN], the “fractional inhibitory concentration index (FICI)” value (Staphylococcus aureus [28]) is reported as 0.18 and the “fractional inhibitory concentration index (FICI)” value (Staphylococcus aureus [29]) is reported as 0.18.

In the case of `COc1cc(OC)c2ccc(=O)oc2c1OCC=C(C)C` [ARTANIN], the “fractional inhibitory concentration index (FICI)” value (Staphylococcus aureus [30]) is reported as <0.5.

`COc1cc2oc(-c3ccc(O)cc3O)c(CC=C(C)C)c(=O)c2c(O)c1/C=C/C(C)C` [ARTOCARPIN] was tested, and the “fractional inhibitory concentration index (FICI)” value (Staphylococcus aureus [7]) was 0.15, the “fractional inhibitory concentration index (FICI)” value (Staphylococcus aureus [28]) was 0.37 and the “fractional inhibitory concentration index (FICI)” value (Staphylococcus aureus [31]) was 0.24.

`O=c1cc(-c2ccccc2)oc2cc(O)c(O)c(O)c12` [BAICALEIN] was tested, and the “fractional inhibitory concentration index (FICI)” value (Staphylococcus aureus [32]) was <0.5, the “fractional inhibitory concentration index (FICI)” value (Staphylococcus aureus [33]) was 0.14 and the “fractional inhibitory concentration index (FICI)” value (Staphylococcus aureus [34]) was 0.14.
